Target: T1, ApKSL2 (Andrographis paniculata, UniProt A0A3G1S3U0)
T1 sequence (A0A3G1S3U0 41-814): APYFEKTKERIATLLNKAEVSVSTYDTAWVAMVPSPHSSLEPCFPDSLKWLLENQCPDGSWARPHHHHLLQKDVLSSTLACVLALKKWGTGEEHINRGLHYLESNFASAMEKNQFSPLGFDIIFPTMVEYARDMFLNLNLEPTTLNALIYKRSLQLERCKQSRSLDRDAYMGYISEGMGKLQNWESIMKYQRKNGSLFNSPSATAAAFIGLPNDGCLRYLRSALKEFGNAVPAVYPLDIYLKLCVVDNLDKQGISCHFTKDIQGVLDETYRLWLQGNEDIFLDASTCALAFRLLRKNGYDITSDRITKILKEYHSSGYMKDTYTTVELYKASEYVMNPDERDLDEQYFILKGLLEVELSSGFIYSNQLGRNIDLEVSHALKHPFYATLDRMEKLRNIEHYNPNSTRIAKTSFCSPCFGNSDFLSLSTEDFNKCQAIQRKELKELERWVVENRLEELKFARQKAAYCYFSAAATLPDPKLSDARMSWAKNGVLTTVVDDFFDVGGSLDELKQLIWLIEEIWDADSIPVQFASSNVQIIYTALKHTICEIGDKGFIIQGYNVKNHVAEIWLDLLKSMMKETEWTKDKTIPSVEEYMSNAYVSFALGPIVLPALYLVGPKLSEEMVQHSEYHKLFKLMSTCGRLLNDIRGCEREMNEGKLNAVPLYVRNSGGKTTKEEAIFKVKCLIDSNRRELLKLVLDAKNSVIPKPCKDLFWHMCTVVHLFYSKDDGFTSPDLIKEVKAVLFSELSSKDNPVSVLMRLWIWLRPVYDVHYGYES
Experiment: co-expression in E. coli, GC-MS of products
Assay type: cell-based
Details: E. coli engineered to produce ent-CPP; product ent-kaurene

C=C1CC[C@@H]2C(C)(C)CCC[C@@]2(C)[C@@H]1CC/C(C)=C/COP(=O)(O)OP(=O)(O)O [ent-CPP]
co-expression in E. coli, GC-MS of products: ApKSL2 acted on both ent-CPP, producing ent-kaurene
